# Measured values as given in patent US20260027116A1, “Methods of Treating Chronic Graft-Versus-Host Disease Following Allogeneic Hematopoietic Stem Cell Transplantation” (Kadmon Corporation, LLC, priority 2022, published 2026).
# System: patients with cGVHD
# Protocol: All responses were assessed by the investigators.
# Reported Adverse Events. […] All-cause mortality data collected during the study were assessed for all enrolled participants. Disease progression related death was not reported as AE.
# Number of Participants With Treatment-emergent Adverse Events (TEAEs), and Treatment-emergent Serious Adverse Events (TESAEs). […] TEAEs included both SAEs and non-SAEs. […] Analysis was performed on safety population which included all participants who received at least 1 dose of study medication.
structure (smiles),measurement,setting,value
"CC(C)NC(=O)COc1cccc(-c2nc(Nc3ccc4[nH]ncc4c3)c3ccccc3n2)c1 [Belumosudil, 2-{3-[4-(1H-indazol-5-ylamino)-2-quinazolinyl]phenoxy}-N-(propan-2-yl) acetamide]",Vertigo: # Events,Cohort 1 200 mg QD,2
same,Vertigo: Affected/At Risk (%),Cohort 1 200 mg QD,2/17 (11.76%)
same,Vision blurred: # Events,Cohort 1 200 mg QD,0
same,Vision blurred: Affected/At Risk (%),Cohort 1 200 mg QD,0/17 (0%)
same,Vomiting: # Events,Cohort 1 200 mg QD,4
same,Vomiting: Affected/At Risk (%),Cohort 1 200 mg QD,2/17 (11.76%)
same,Weight decreased: # Events,Cohort 1 200 mg QD,1
same,Weight decreased: Affected/At Risk (%),Cohort 1 200 mg QD,1/17 (5.88%)
same,Weight increased: # Events,Cohort 1 200 mg QD,9
same,Weight increased: Affected/At Risk (%),Cohort 1 200 mg QD,3/17 (17.65%)
same,White blood cell count decreased: # Events,Cohort 1 200 mg QD,1
same,White blood cell count decreased: Affected/At Risk (%),Cohort 1 200 mg QD,1/17 (5.88%)
same,Abdominal distension: # Events,Cohort 2 200 mg BID,0
same,Abdominal distension: Affected/At Risk (%),Cohort 2 200 mg BID,0/16 (0%)
same,Abdominal pain upper: # Events,Cohort 2 200 mg BID,1
same,Abdominal pain upper: Affected/At Risk (%),Cohort 2 200 mg BID,1/16 (6.25%)
same,Abdominal pain: # Events,Cohort 2 200 mg BID,4
same,Abdominal pain: Affected/At Risk (%),Cohort 2 200 mg BID,2/16 (12.5%)
same,Actinic keratosis: # Events,Cohort 2 200 mg BID,1
same,Actinic keratosis: Affected/At Risk (%),Cohort 2 200 mg BID,1/16 (6.25%)
same,Acute kidney injury: # Events,Cohort 2 200 mg BID,2
same,Acute kidney injury: Affected/At Risk (%),Cohort 2 200 mg BID,2/16 (12.5%)
same,Acute respiratory distress syndrome: # Events,Cohort 2 200 mg BID,0
same,Acute respiratory distress syndrome: Affected/At Risk (%),Cohort 2 200 mg BID,0/16 (0%)
same,Adrenal insufficiency: # Events,Cohort 2 200 mg BID,0
same,Adrenal insufficiency: Affected/At Risk (%),Cohort 2 200 mg BID,0/16 (0%)
same,Alanine aminotransferase increased: # Events,Cohort 2 200 mg BID,4
same,Alanine aminotransferase increased: Affected/At Risk (%),Cohort 2 200 mg BID,3/16 (18.75%)
same,"All grade ALT/AST increased, No. (%)",Cohort 2 200 mg BID,5 (31)
same,"All grade Cough, No. (%)",Cohort 2 200 mg BID,4 (25)
same,"All grade Diarrhea, No. (%)",Cohort 2 200 mg BID,5 (31)
same,"All grade Dyspnea, No. (%)",Cohort 2 200 mg BID,6 (38)
same,"All grade Fatigue, No. (%)",Cohort 2 200 mg BID,3 (19)
same,"All grade Headache, No. (%)",Cohort 2 200 mg BID,3 (19)
same,"All grade Hypertension, No. (%)",Cohort 2 200 mg BID,2 (13)
same,"All grade Nausea, No. (%)",Cohort 2 200 mg BID,4 (25)
same,"All grade Peripheral edema, No. (%)",Cohort 2 200 mg BID,4 (25)
same,"All grade URI, No. (%)",Cohort 2 200 mg BID,9 (56)
same,"All-Cause Mortality, %",Cohort 2 200 mg BID,(18.75%)
same,"All-Cause Mortality, Affected/At Risk",Cohort 2 200 mg BID,3/16
same,Anaemia: # Events,Cohort 2 200 mg BID,8
same,Anaemia: Affected/At Risk (%),Cohort 2 200 mg BID,4/16 (25%)
same,Anal incontinence: # Events,Cohort 2 200 mg BID,0
same,Anal incontinence: Affected/At Risk (%),Cohort 2 200 mg BID,0/16 (0%)
same,Anxiety: # Events,Cohort 2 200 mg BID,3
same,Anxiety: Affected/At Risk (%),Cohort 2 200 mg BID,2/16 (12.5%)
same,"Any AE, No. (%)",Cohort 2 200 mg BID,16 (100)
same,Arthralgia: # Events,Cohort 2 200 mg BID,1
same,Arthralgia: Affected/At Risk (%),Cohort 2 200 mg BID,1/16 (6.25%)
same,Aspartate aminotransferase increased: # Events,Cohort 2 200 mg BID,2
same,Aspartate aminotransferase increased: Affected/At Risk (%),Cohort 2 200 mg BID,2/16 (12.5%)
same,Asthenia: # Events,Cohort 2 200 mg BID,1
same,Asthenia: Affected/At Risk (%),Cohort 2 200 mg BID,1/16 (6.25%)
same,Atelectasis: # Events,Cohort 2 200 mg BID,0
same,Atelectasis: Affected/At Risk (%),Cohort 2 200 mg BID,0/16 (0%)
same,Back pain: # Events,Cohort 2 200 mg BID,2
same,Back pain: Affected/At Risk (%),Cohort 2 200 mg BID,2/16 (12.5%)
same,Balance disorder: # Events,Cohort 2 200 mg BID,1
same,Balance disorder: Affected/At Risk (%),Cohort 2 200 mg BID,1/16 (6.25%)
same,Basal cell carcinoma: # Events,Cohort 2 200 mg BID,1
same,Basal cell carcinoma: Affected/At Risk (%),Cohort 2 200 mg BID,1/16 (6.25%)
same,Benign prostatic hyperplasia: # Events,Cohort 2 200 mg BID,0
same,Benign prostatic hyperplasia: Affected/At Risk (%),Cohort 2 200 mg BID,0/16 (0%)
same,Blepharitis: # Events,Cohort 2 200 mg BID,0
same,Blepharitis: Affected/At Risk (%),Cohort 2 200 mg BID,0/16 (0%)
same,Blister: # Events,Cohort 2 200 mg BID,3
same,Blister: Affected/At Risk (%),Cohort 2 200 mg BID,2/16 (12.5%)
same,Blood alkaline phosphatase increased: # Events,Cohort 2 200 mg BID,1
same,Blood alkaline phosphatase increased: Affected/At Risk (%),Cohort 2 200 mg BID,1/16 (6.25%)
same,Blood chloride decreased: # Events,Cohort 2 200 mg BID,1
same,Blood chloride decreased: Affected/At Risk (%),Cohort 2 200 mg BID,1/16 (6.25%)
same,Blood cholesterol increased: # Events,Cohort 2 200 mg BID,0
same,Blood cholesterol increased: Affected/At Risk (%),Cohort 2 200 mg BID,0/16 (0%)
same,Blood creatine increased: # Events,Cohort 2 200 mg BID,1
same,Blood creatine increased: Affected/At Risk (%),Cohort 2 200 mg BID,1/16 (6.25%)
same,Blood creatine phosphokinase increased: # Events,Cohort 2 200 mg BID,0
same,Blood creatine phosphokinase increased: Affected/At Risk (%),Cohort 2 200 mg BID,0/16 (0%)
same,Blood creatinine increased: # Events,Cohort 2 200 mg BID,1
same,Blood creatinine increased: Affected/At Risk (%),Cohort 2 200 mg BID,1/16 (6.25%)
same,Blood loss anaemia: # Events,Cohort 2 200 mg BID,0
same,Blood loss anaemia: Affected/At Risk (%),Cohort 2 200 mg BID,0/16 (0%)
same,Bronchial secretion retention: # Events,Cohort 2 200 mg BID,1
same,Bronchial secretion retention: Affected/At Risk (%),Cohort 2 200 mg BID,1/16 (6.25%)
same,Bronchitis: # Events,Cohort 2 200 mg BID,0
same,Bronchitis: Affected/At Risk (%),Cohort 2 200 mg BID,0/16 (0%)
